# Data as given in patent US7247627B2, “Salts and polymorphs of a pyrrole-substituted indolinone compound” (Pharmacia & Upjohn Company, priority 2003, dated 2007).
# Counter-ions that a name gives are not always drawn.
# Assays:
# [1] = Hygroscopicity by dynamic moisture sorption gravimetry (DMSG); format: physicochemical; conditions: for Water Uptake at 80% RH (wt. %) / hysteresis of sorption profile / hygroscopicity: DMSG; for Water Uptake at 80% RH (wt. %): 25° C.
# Experimental: In one embodiment, the invention provides a non-hygroscopic salt of 5-[(Z)-(5-fluoro-2-oxo-1,2-dihydro-3H-indol-3-ylidene)methyl]-N-[(2S)-2-hydroxy-3-morpholin-4-ylpropyl]-2,4-dimethyl-1H-pyrrole-3-carboxamide. Hygroscopicity is determined by dynamic moisture sorption gravimetry (DMSG) using a controlled atmosphere microbalance at a temperature of 25° C. Samples are analyzed over a relative humidity range of from 0 to 90% in 3% steps. Each step is brought to equilibrium before moving to the next step, with equilibrium assessed as a weight change of less than 0.002 mg (0.02%) for five consecutive points at 1 point per 120 seconds.
# Several salts of 5-[(Z)-(5-fluoro-2-oxo-1,2-dihydro-3H-indol-3-ylidene)methyl]-N-[(2S)-2-hydroxy-3-morpholin-4-ylpropyl]-2,4-dimethyl-1H-pyrrole-3-carboxamide were produced and analyzed for hygroscopicity. Hygroscopicity was determined by dynamic moisture sorption gravimetry (DMSG) using a controlled atmosphere microbalance at a temperature of 25° C. Samples were analyzed over a relative humidity range of from 0 to 90% in 3% steps, in a humidity profile of […], where the initial value of 36% reflects the approximate initial equilibrated relative humidity (not specifically measured). Each step was brought to equilibrium before moving to the next step, with equilibrium assessed as a weight change of less than 0.001 mg (0.01%) or 0.002 mg (0.02%) for five consecutive points at 1 point per 120 seconds. The water uptake at 80% relative humidity (RH) was selected for comparison between the salts. The 80% RH values for each salt are shown in Table 5, and the right column of the table identifies the corresponding Figure showing the complete DMSG scan. A range of values given for the water uptake at 80% reflects hysteresis in the 0→90% and 90→0% scans.
# [2] = Crystal form stability by PXRD (Example 3); format: physicochemical; conditions: 40° C. and 75% relative humidity
# Experimental: Crystal form stability was assessed for samples of 5-[(Z)-(5-fluoro-2-oxo-1,2-dihydro-3H-indol-3-ylidene)methyl]-N-[(2S)-2-hydroxy-3-morpholin-4-ylpropyl]-2,4-dimethyl-1 H-pyrrole-3-carboxamide maleate salt, polymorph Form 1, polymorph Form 2, and a mixture of polymorph Form 1 and Form 2. In each case, a sample of the substance was placed into a controlled temperature and humidity stability chamber at 40° C. and 75% relative humidity. Samples were taken several times during the duration of the test and analyzed for qualitative changes in the PXRD patterns.
# [3] = TGA of six-week stability samples; format: physicochemical
# Experimental: TGA measurements were performed using a TA Instruments model 2950 Hi-Res analyzer with a Thermal Analyst 5000 controller. Samples were placed onto a tared platinum hanging pan and heated to at least 165° C. at a rate of 10° C./min. Dry nitrogen was used as a purge gas.
# To determine the thermal stability and residual solvent content, the same samples were analyzed by DSC and TGA.
# [4] = Six-week stability study, HPLC chemical and enantiomeric stability, PXRD (Example 4); format: physicochemical; conditions: for Total Impurity (%): closed vial
# Experimental: A six-week stability study was carried out on samples of 5-[(Z)-(5-fluoro-2-oxo-1,2-dihydro-3H-indol-3-ylidene)methyl]-N-[(2S)-2-hydroxy-3-morpholin-4-ylpropyl]-2,4-dimethyl-1H-pyrrole-3-carboxamide maleate salt, polymorph Form 1. The compound was exposed for 6 weeks, closed vial, at three stability test conditions: 5° C., 25° C./60% relative humidity and 40° C./75% relative humidity, and analyzed for chemical and enantiomeric stability as described in Example 2, except that the HPLC instrument was an Agilent 1100 series.
# The percent recovery was calculated based on the average response factor obtained from a reference standard throughout the HPLC run, and considering the E isomer as the compound and not as an impurity. […] The isomerization is often an artifact of sample preparation and analysis. […] The values shown in the table are averages of several injections.
# [5] = Solid-state properties of the free base form; format: physicochemical
# [6] = test system: hepatic cytochrome P450; assay: Metabolism in preclinical species and in human hepatocytes and microsomes; format: in vitro ADME; conditions: preclinical species (in vivo and in vitro)
# Experimental: The primary site of metabolism is the morpholinyl group. Three metabolites have been identified in vivo following single oral administration (100 mg/kg) to cynomolgus monkeys (FIG. 8). These 3 metabolites, which were detected at <16% relative abundance to parent in monkey plasma, were also the major products observed in human microsomes and hepatocytes. Relative abundance was determined from monkey plasma following a single dose of 5-[(Z)-(5-fluoro-2-oxo-1,2-dihydro-3H-indol-3-ylidene)methyl]-N-[(2S)-2-hydroxy-3-morpholin-4-ylpropyl]-2,4-dimethyl-1H-pyrrole-3-carboxamide (100 mg/kg) and based on (AUC0-12 metabolite/AUC0-12 parent)×100, estimated from the characteristic indole UV absorption at 440 nm. The N,O-dealkylation metabolite has been confirmed via nuclear magnetic resonance (NMR). […] The morpholinyl lactam metabolite is the product of oxygenation-dehydrogenation and has also been confirmed via NMR. The morpholinyl hemi-aminal metabolite is an unstable metabolite identified via an iminium-ion trapping experiment. Relative abundance was determined by UV response at 428 nm.
# [7] = test system: solid and hematopoietic cancer xenograft models; conditions: diverse preclinical solid and hematopoietic cancer xenograft models; cited from earlier work
# [8] = 6-week sample stored at 25° C./60% RH
# [9] = 6-week sample stored at 40° C./75% RH
structure (smiles),measurement,setting,value
"Cc1[nH]c(/C=C2\C(=O)Nc3ccc(F)cc32)c(C)c1C(=O)NC[C@H](O)CN1CCOCC1 [HCl, form 1, 5-[(Z)-(5-fluoro-2-oxo-1,2-dihydro-3H-indol-3-ylidene)methyl]-N-[(2S)-2-hydroxy-3-morpholin-4-ylpropyl]-2,4-dimethyl-1H-pyrrole-3-carboxamide]",Water Uptake at 80% RH (wt. %),[1]; 80% relative humidity,3–20 wt. %
same,hysteresis of sorption profile,[1]; listed as hydrochloride salt,significant hysteresis
"Cc1[nH]c(/C=C2\C(=O)Nc3ccc(F)cc32)c(C)c1C(=O)NC[C@H](O)CN1CCOCC1 [Mandalate, 5-[(Z)-(5-fluoro-2-oxo-1,2-dihydro-3H-indol-3-ylidene)methyl]-N-[(2S)-2-hydroxy-3-morpholin-4-ylpropyl]-2,4-dimethyl-1H-pyrrole-3-carboxamide]",Water Uptake at 80% RH (wt. %),[1]; 80% relative humidity,5–6 wt. %
"Cc1[nH]c(/C=C2\C(=O)Nc3ccc(F)cc32)c(C)c1C(=O)NC[C@H](O)CN1CCOCC1 [HCl, form 2, 5-[(Z)-(5-fluoro-2-oxo-1,2-dihydro-3H-indol-3-ylidene)methyl]-N-[(2S)-2-hydroxy-3-morpholin-4-ylpropyl]-2,4-dimethyl-1H-pyrrole-3-carboxamide]",hygroscopicity,[1],relatively non-hygroscopic
same,hysteresis of sorption profile,[1],no significant hysteresis
same,Water Uptake at 80% RH (wt. %),[1]; 80% relative humidity,1.2 wt. %
"Cc1[nH]c(/C=C2\C(=O)Nc3ccc(F)cc32)c(C)c1C(=O)NC[C@H](O)CN1CCOCC1 [L-tartrate, 5-[(Z)-(5-fluoro-2-oxo-1,2-dihydro-3H-indol-3-ylidene)methyl]-N-[(2S)-2-hydroxy-3-morpholin-4-ylpropyl]-2,4-dimethyl-1H-pyrrole-3-carboxamide]",Water Uptake at 80% RH (wt. %),[1]; 80% relative humidity,9 wt. %
"Cc1[nH]c(/C=C2\C(=O)Nc3ccc(F)cc32)c(C)c1C(=O)NC[C@H](O)CN1CCOCC1 [Form 1, 5-[(Z)-(5-fluoro-2-oxo-1,2-dihydro-3H-indol-3-ylidene)methyl]-N-[(2S)-2-hydroxy-3-morpholin-4-ylpropyl]-2,4-dimethyl-1H-pyrrole-3-carboxamide]",crystal form changes in the PXRD pattern,[2]; 163 days,no crystal form changes were observed
same,"TGA Wt. Loss (%), 25° C.–125° C.",[3]; 6-week sample stored at 5° C.,1.44%
same,"TGA Wt. Loss (%), 25° C.–275° C.",[3]; 6-week sample stored at 5° C.,23.15%
same,"TGA Wt. Loss (%), 25° C.–125° C.",[3]; [8],1.36%
same,"TGA Wt. Loss (%), 25° C.–275° C.",[3]; [8],24.36%
same,"TGA Wt. Loss (%), 25° C.–125° C.",[3]; [9],1.66%
same,"TGA Wt. Loss (%), 25° C.–275° C.",[3]; [9],20.61%
same,TGA significant weight loss at 207° C.,[3]; 6-week samples,21-23%
same,TGA weight loss between 25–125° C.,[3]; 6-week samples,less than 2%
same,crystalline changes by PXRD compared to a control sample,[4]; 6-week samples maintained at 40° C./75% RH,no crystalline changes
same,chiral transformation,"[4]; 6-week stability samples, any samples",no chiral transformation observed
same,Total Impurity (%),"[4]; 6 weeks, 5° C. ± 3° C.",1.67%
same,Total Impurity (%),"[4]; 6 weeks, 25° C. ± 2° C., 60% RH",1.85%
same,Total Impurity (%),"[4]; 6 weeks, 40° C. ± 2° C.C, 76% RH",1.86%
same,assay of the 6-week stability samples,[4]; all three stability conditions,97.1–98.5%
same,"Enantiomeric stability, amount of R isomer",[4]; samples held at 80° C. for 2 weeks,no increase in the amount of R isomer observed
same,stability,"[4]; under all stability conditions investigated, 6 weeks",stable
"Cc1[nH]c(/C=C2\C(=O)Nc3ccc(F)cc32)c(C)c1C(=O)NC[C@H](O)CN1CCOCC1 [L-malate, 5-[(Z)-(5-fluoro-2-oxo-1,2-dihydro-3H-indol-3-ylidene)methyl]-N-[(2S)-2-hydroxy-3-morpholin-4-ylpropyl]-2,4-dimethyl-1H-pyrrole-3-carboxamide]",Water Uptake at 80% RH (wt. %),[1]; 80% relative humidity,12–13 wt. %
"Cc1[nH]c(/C=C2\C(=O)Nc3ccc(F)cc32)c(C)c1C(=O)NC[C@H](O)CN1CCOCC1 [Form 2, 5-[(Z)-(5-fluoro-2-oxo-1,2-dihydro-3H-indol-3-ylidene)methyl]-N-[(2S)-2-hydroxy-3-morpholin-4-ylpropyl]-2,4-dimethyl-1H-pyrrole-3-carboxamide]",crystal form changes in the PXRD pattern,[2]; 134 days,no crystal form changes were observed
same,Water Uptake at 80% RH (wt. %),"[1]; 80% relative humidity, listed as Maleate",0.8 wt. %
"Cc1[nH]c(/C=C2\C(=O)Nc3ccc(F)cc32)c(C)c1C(=O)NC[C@H](O)CN1CCOCC1 [Malonate, 5-[(Z)-(5-fluoro-2-oxo-1,2-dihydro-3H-indol-3-ylidene)methyl]-N-[(2S)-2-hydroxy-3-morpholin-4-ylpropyl]-2,4-dimethyl-1H-pyrrole-3-carboxamide]",Water Uptake at 80% RH (wt. %),[1]; 80% relative humidity,12 wt. %
"Cc1[nH]c(/C=C2\C(=O)Nc3ccc(F)cc32)c(C)c1C(=O)NC[C@H](O)CN1CCOCC1 [5-[(Z)-(5-fluoro-2-oxo-1,2-dihydro-3H-indol-3-ylidene)methyl]-N-[(2S)-2-hydroxy-3-morpholin-4-ylpropyl]-2,4-dimethyl-1H-pyrrole-3-carboxamide]",chemical and enantiomeric stability,[5],chemically and enantiomerically stable
same,hygroscopicity,[5],relatively non-hygroscopic
same,metabolism pathway,[6],proceeds primarily through an oxidative pathway mediated by hepatic cytochrome P450
same,anti-tumor activity,[7],has anti-tumor activity
"Cc1[nH]c(/C=C2\C(=O)Nc3ccc(F)cc32)c(C)c1C(=O)NC[C@H](O)CN1CCOCC1 [mixed Form 1/Form 2, 5-[(Z)-(5-fluoro-2-oxo-1,2-dihydro-3H-indol-3-ylidene)methyl]-N-[(2S)-2-hydroxy-3-morpholin-4-ylpropyl]-2,4-dimethyl-1H-pyrrole-3-carboxamide]",crystal form changes in the PXRD pattern,[2]; 6 weeks,no crystal form changes were observed
"Cc1[nH]c(/C=C2\C(=O)Nc3ccc(F)cc32)c(C)c1C(=O)NC[C@H](O)CN1CCOCC1 [initial maleate salt, 5-[(Z)-(5-fluoro-2-oxo-1,2-dihydro-3H-indol-3-ylidene)methyl]-N-[(2S)-2-hydroxy-3-morpholin-4-ylpropyl]-2,4-dimethyl-1H-pyrrole-3-carboxamide]",moisture uptake,[1]; 80% relative humidity,about 9%
same,hygroscopicity,[1],hygroscopic
"Cc1[nH]c(/C=C2\C(=O)Nc3ccc(F)cc32)c(C)c1C(=O)NC[C@H](O)CN1CCOCC1 [Tosylate, 5-[(Z)-(5-fluoro-2-oxo-1,2-dihydro-3H-indol-3-ylidene)methyl]-N-[(2S)-2-hydroxy-3-morpholin-4-ylpropyl]-2,4-dimethyl-1H-pyrrole-3-carboxamide]",Water Uptake at 80% RH (wt. %),[1]; 80% relative humidity,7 wt. %
same,Uptake of water,[1]; at about 65% relative humidity,about 2.5%
